Results taken from patent US7897371B2, “Activation of mutated RAC-PK” (Novartis AG, priority 1995, dated 2011).
Where two headings read alike, the source gives them in different places.

What was measured:
PK B = PK B (Homo sapiens, UniProt P31749); assay: Protein kinase inhibition assay, PK B (peptide […] substrate); assay type: biochemical
Description: (§1) After incubation on ice for 10 minutes, the reaction was started by the addition of 10µL of 50 mM magnesium acetate and 0.5 mM [.gamma^32P]ATP (100-200 cpm/pmol). For the assay of mixed isoforms of PKC 20µM diacylglycerol, 0.5 mM CaCl.sub2 and 100µM phosphatidylsene were also present in the incubations. The assays were carried out for 15 minutes at 30° C., then terminated and analyzed as described. See Alessi et al., Methods Enzymol, Vol. 255, pp. 279-290 (1995). One unit of activity was that amount of enzyme that catalyzed the phosphorylation of 1 nmol os substrate in 1 minute. The final concentration of DMSO in each assay was 1% (by vol). […] Mixed isoforms of PKC were assayed using histone H1 as substrate, while MAPKAP-K11 and p70 S6 kinase were assayed using the peptide […] (SEQ ID NO: 14). See Leighton et al. (1995), supra. PK B was assayed with the peptide […] [9] (SEQ ID NO: 5) and MAPKAP-K2 was assayed with the peptide […] (SEQ ID NO: 27). See Stokoe, Caudwell, Cohen and Cohen, Biochem J, Vol. 296, Pt. 3, pp. 843-849 (1993). p42 MAP kinase was assayed using MBP, and MAPKK-1 and c-Raf1 were assayed as described in Alessi et al., Methods Enzymol (1995), supra.

mixed isoforms of PKC = assay: Protein kinase inhibition assay, mixed isoforms of PKC (histone H1 substrate); assay type: biochemical
Description: as §1

MAPKK-1 = MAPKK-1 (Homo sapiens, UniProt Q02750); assay: Protein kinase inhibition assay, MAPKK-1; assay type: biochemical
Description: as §1

c-Raf1 = c-Raf1 (Homo sapiens, UniProt P04049); assay: Protein kinase inhibition assay, c-Raf1; assay type: biochemical
Description: as §1

p42 MAP kinase = p42 MAP kinase (Homo sapiens, UniProt P28482); assay: Protein kinase inhibition assay, p42 MAP kinase (MBP substrate); assay type: biochemical
Description: as §1

MAPKAP-K1β = biological target: T1, MAPKAP-K1β (Oryctolagus cuniculus, UniProt A0A5F9C4L9); assay: Protein kinase inhibition assay, MAPKAP-K1β (peptide […] substrate); assay type: biochemical, rabbit
T1 construct: from tissue; host or cells: rabbit skeletal muscle

p70 S6 kinase = biological target: T2, p70 S6 kinase (Rattus norvegicus, UniProt P67999); assay: Protein kinase inhibition assay, p70 S6 kinase (peptide […] substrate); assay type: biochemical
T2 construct: from tissue; host or cells: rat liver

GSK3 = assay type: cell-based
RAC-PKα [1] = tested on: RAC-PKα
MAPKAP kinase-1 = MAPKAP kinase-1 activation by insulin in L6 myotubes; assay type: cell-based
Source text: (d)—As (c) except that MAPKAP kinase-1 was immunoprecipitated from the lysates and assayed with S6 peptide (filled circles).

MAPKAP-K2 = biological target: T3, MAPKAP-K2 (Homo sapiens, UniProt P49137); assay: Protein kinase inhibition assay, MAPKAP-K2 (peptide […] substrate); assay type: biochemical
T3 construct: cDNA encoding residues 46-400 of human MAPKAP kinase-2 was expressed in E. coli as a GST fusion protein; GST; made in house; host or cells: E. coli
Description: as §1

MAPKAP kinase-2 = assay type: cell-based
RAC-PKα [2] = assay type: cell-based, human
RAC-PKα [3] = biological target: T4, RAC-PKα (Homo sapiens, UniProt P31749, T308A); assay type: biochemical; details: COS-1 cells
T4 construct: made in house; host or cells: COS-1 cells (DEAE-dextran transfection, serum-starved), immunoprecipitated with 12CA5 antibody

GSK3β = assay type: cell-based, human
RAC-PKα [4] = details: 293 cells
RAC-PKα [5] = assay type: biochemical, human; details: expressed in COS-1 cells, without MAPKAP kinase-2
p70s6k-Myc = assay: Transient cotransfection of RAC-PKα with p70s6k-Myc; assay type: cell-based; details: coexpression
Description: To examine this possibility, the regulation of p70^[…] is investigated in a transient cotransfection assay using human 293 cells. RAC-PKα constructs are prepared by ligating the RAC-PKα cDNA [see Jones et al. (1991), supra] in-frame to the initiator methionine, in the mammalian expression vector pECE. The construct is also subcloned into a CMV promoter-driven expression vector. The construct is confirmed by restriction analysis and sequencing. Constructs expressing Myc-tagged p70^[…] are obtained from Dr. G. Thomas, […] Institut, Basel, Switzerland. Constructs are transfected into COS cells using standard procedures.

Chain of PK B (P31749 whole entry, canonical isoform): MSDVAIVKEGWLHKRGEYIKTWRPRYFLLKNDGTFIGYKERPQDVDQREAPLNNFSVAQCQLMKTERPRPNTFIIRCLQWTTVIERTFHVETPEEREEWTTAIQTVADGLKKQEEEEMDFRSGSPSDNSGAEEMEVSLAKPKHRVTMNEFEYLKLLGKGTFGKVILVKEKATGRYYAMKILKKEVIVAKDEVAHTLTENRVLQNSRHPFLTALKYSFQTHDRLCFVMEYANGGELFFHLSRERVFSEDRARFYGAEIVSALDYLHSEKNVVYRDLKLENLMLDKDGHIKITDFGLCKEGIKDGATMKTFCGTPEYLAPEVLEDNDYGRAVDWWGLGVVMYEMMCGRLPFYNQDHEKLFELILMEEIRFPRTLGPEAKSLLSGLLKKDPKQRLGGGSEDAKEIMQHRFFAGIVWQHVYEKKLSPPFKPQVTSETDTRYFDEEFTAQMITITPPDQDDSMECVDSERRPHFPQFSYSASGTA
T2 sequence (P67999 24-525): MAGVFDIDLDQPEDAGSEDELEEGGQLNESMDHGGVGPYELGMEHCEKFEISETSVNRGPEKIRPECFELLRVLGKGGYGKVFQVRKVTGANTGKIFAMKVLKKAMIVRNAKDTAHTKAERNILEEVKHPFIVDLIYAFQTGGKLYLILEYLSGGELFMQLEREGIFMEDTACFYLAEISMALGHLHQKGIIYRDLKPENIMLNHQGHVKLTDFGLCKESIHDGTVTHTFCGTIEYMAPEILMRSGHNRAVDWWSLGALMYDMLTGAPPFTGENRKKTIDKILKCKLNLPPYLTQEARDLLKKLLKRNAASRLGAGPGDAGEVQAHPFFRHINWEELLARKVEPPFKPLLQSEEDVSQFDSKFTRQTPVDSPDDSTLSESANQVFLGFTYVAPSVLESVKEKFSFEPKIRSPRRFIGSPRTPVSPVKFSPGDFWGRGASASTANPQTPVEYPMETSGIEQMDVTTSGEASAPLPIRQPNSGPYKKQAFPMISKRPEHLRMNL
Chain of GSK3β (P49841 whole entry): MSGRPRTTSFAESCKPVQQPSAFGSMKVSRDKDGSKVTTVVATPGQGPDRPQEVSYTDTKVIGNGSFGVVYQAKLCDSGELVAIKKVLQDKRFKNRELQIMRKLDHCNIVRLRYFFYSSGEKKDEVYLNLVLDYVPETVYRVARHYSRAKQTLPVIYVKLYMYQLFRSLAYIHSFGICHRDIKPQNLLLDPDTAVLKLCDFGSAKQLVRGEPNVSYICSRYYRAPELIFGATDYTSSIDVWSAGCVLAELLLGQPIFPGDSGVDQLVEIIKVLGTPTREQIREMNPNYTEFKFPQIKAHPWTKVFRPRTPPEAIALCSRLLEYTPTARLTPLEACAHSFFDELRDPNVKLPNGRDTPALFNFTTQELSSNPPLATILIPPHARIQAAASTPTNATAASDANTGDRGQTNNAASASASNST
Chain of c-Raf1 (P04049 whole entry): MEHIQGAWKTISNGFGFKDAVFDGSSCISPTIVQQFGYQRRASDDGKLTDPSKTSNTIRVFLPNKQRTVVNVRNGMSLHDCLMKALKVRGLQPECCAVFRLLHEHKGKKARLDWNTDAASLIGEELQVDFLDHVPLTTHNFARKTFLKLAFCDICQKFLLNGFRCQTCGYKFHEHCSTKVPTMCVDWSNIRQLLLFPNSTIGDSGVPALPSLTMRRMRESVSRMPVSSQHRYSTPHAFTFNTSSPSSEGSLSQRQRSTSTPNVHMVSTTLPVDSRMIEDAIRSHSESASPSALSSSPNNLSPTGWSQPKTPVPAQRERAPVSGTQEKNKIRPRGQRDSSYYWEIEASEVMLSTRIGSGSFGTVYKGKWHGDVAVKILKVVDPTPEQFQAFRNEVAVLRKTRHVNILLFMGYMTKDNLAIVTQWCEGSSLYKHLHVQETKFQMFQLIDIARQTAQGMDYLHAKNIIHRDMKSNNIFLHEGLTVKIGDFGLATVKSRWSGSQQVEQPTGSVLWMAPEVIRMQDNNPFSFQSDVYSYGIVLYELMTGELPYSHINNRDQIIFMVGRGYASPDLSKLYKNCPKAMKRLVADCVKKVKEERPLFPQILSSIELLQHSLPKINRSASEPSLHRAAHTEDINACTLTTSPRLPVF
T1 sequence (A0A5F9C4L9 1-740): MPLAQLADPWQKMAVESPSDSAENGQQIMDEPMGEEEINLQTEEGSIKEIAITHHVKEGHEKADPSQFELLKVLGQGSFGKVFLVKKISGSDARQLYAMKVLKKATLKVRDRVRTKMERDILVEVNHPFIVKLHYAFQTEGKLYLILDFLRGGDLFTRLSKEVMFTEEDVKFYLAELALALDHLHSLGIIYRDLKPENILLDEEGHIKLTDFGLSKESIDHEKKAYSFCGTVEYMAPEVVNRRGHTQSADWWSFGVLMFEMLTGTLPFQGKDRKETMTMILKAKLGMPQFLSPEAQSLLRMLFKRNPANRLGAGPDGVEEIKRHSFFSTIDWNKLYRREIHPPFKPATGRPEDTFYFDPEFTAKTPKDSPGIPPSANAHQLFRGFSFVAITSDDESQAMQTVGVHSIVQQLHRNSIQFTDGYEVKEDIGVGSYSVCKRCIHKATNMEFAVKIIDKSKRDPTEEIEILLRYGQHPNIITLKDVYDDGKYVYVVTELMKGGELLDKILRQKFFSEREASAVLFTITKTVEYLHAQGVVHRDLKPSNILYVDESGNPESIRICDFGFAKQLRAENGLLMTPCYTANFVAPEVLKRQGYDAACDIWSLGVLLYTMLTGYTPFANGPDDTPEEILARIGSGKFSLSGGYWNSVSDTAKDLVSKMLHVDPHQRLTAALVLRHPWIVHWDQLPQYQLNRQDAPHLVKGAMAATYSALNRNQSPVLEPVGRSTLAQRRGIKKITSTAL
Chain of MAPKK-1 (Q02750 whole entry, species assumed): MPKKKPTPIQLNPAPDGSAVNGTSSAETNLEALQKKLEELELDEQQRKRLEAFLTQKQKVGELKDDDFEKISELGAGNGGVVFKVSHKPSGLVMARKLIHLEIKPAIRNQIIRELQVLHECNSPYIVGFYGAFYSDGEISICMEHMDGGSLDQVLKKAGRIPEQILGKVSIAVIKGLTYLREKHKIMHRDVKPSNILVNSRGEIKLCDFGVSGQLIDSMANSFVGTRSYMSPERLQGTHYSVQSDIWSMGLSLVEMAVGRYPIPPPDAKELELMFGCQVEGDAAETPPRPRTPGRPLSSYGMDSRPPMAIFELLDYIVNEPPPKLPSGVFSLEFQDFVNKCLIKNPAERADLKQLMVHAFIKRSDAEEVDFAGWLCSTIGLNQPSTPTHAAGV
Chain of p42 MAP kinase (P28482 whole entry): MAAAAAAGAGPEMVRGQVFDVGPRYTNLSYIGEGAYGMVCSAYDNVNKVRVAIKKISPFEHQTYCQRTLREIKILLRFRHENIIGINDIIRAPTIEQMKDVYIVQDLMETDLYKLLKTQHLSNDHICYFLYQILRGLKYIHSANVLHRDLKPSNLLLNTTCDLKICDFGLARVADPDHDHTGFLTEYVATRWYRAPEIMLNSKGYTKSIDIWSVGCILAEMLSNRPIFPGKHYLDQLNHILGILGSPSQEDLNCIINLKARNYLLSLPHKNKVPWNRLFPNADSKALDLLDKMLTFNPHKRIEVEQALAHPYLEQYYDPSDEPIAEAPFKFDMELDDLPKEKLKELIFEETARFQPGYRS
T4 sequence (P31749 whole entry T308A): as the sequence (P31749 whole entry, canonical isoform) above, with T308A counted along it
T3 sequence (P49137 46-400): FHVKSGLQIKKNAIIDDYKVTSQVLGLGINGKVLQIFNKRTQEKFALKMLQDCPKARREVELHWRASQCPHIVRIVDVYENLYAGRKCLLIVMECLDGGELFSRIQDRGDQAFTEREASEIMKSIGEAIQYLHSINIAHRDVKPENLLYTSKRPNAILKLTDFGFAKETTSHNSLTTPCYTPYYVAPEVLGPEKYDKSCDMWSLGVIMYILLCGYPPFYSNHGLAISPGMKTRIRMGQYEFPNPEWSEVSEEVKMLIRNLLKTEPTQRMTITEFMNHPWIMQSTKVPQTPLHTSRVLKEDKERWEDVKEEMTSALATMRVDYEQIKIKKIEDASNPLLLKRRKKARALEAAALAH

CN(C)CCCn1cc(C2=C(c3c[nH]c4ccccc34)C(=O)NC2=O)c2ccccc21 [GF 109203X]
Inhibition of PK B in vitro (PK B): without inhibiting | IC50 (mixed isoforms of PKC): 30 nM | Inhibition of MAPKK-1 in vitro (MAPKK-1): without inhibiting | Inhibition of c-Raf1 in vitro (c-Raf1): without inhibiting | Inhibition of p42 MAP kinase in vitro (p42 MAP kinase): without inhibiting | IC50 (MAPKAP-K1β; read-out: IC50, MAPKAP-K1 B): 50 nM | IC50 (p70 S6 kinase): 100 nM

COc1cccc(-c2cc(=O)c3ccccc3o2)c1N [PD 98059]
Effect on inhibition of GSK3 by insulin (GSK3): unaffected | Effect on insulin activation of RAC-PK (RAC-PKα [1]): essentially unaffected | Effect on activation of MAPKAP kinase-1 (MAPKAP kinase-1): prevented

Cn1cc(C2=C(c3cn(CCCSC(=N)N)c4ccccc34)C(=O)NC2=O)c2ccccc21 [Ro 318220]
Inhibition of MAPKAP-K2 in vitro (MAPKAP-K2): not inhibited significantly | IC50 (PK B): 1000 nM | IC50 (mixed isoforms of PKC): 5 nM | Inhibition of MAPKK-1 in vitro (MAPKK-1): not inhibited significantly | Inhibition of c-Raf1 in vitro (c-Raf1): not inhibited significantly | Inhibition of p42 MAP kinase in vitro (p42 MAP kinase): not inhibited significantly | IC50 (MAPKAP-K1β; read-out: IC50, MAPKAP-K1β): 3 nM | IC50 (p70 S6 kinase): 15 nM

C[S+]([O-])c1ccc(-c2nc(-c3ccncc3)c(-c3ccc(F)cc3)[nH]2)cc1 (stereo not drawn) [SB 203580]
Effect on activation of MAPKAP kinase-2 (MAPKAP kinase-2): prevented | Effect on activation of RAC-PKα by insulin or IGF-1 (RAC-PKα [2]): had no effect

HA-308A RAC-PKα: HA-tagged RAC-PKα with Thr308 changed to Ala
Activity as percentage of unstimulated WT enzyme (RAC-PKα [3]): about 40%

HA-308D/473D RAC-PK: RAC-PKα with both Thr308 and Ser473 mutated to Asp, constitutively active
Increase in GSK3 activity on PP2A treatment (GSK3β): 85% | Activity relative to WT HA-RAC-PKα in unstimulated cells (RAC-PKα [4]): 40 fold | Activity relative to unstimulated (dephosphorylated) WT HA-RAC-PKα (RAC-PKα [5]): 18 fold

B1: RAC-PKα: human RAC protein kinase α, wild type, SEQ ID NO. 3 (protein)
chain: MNDVAIVKEGWLHKRGEYIKTWRPRYFLLKNDGTFIGYKERPQDVEQRESPLNNFSVAQCQLMKTERPRPNTFIIRCLQWTTVIERTFHVETPEEREEWTTAIQTVADGLKRQEEETMDFRSGSPSDNSGAEEMEVALAKPKHRVTMNEFEYLKLLGKGTFGKVILVKEKATGRYYAMKILKKEVIVAKDEVAHTLTENRVLQNSRHPFLTALKYSFQTHDRLCFVMEYANGGELFFHLSRERVFSEDRARFYGAEIVSALDYLHSEKNVVYRDLKLENLMLDKDGHIKITDFGLCKEGIKDGATMKTFCGTPEYLAPEVLEDNDYGRAVDWWGLGVVMYEMMCGRLPFYNQDHEKLFELILMEEIRFPRTLGPEAKSLLSGLLKKDPTQRLGGGSEDAKEIMQHRFFANIVWQDVYEKKLSPPFKPQVTSETDTRYFDEEFTAQMITITPPDQDDSMECVDSERRPHFPQFSYSASGTA
Increase in GSK3 activity on PP2A treatment (GSK3β): 68% | Increase of basal p70s6k-Myc activity (p70s6k-Myc): 3.5 fold | Increase of insulin-stimulated p70s6k-Myc activity (p70s6k-Myc): 3 fold
